# ± gives the standard deviation of the averaged measurements.
# Experiments:
# BMN-673 = compound: Cn1ncnc1[C@H]1c2n[nH]c(=O)c3cc(F)cc(c23)N[C@@H]1c1ccc(F)cc1 [BMN-673]; experiment: surviving fraction relative to DMSO-only wells; higher = less growth inhibition; conditions: exposure time: 5 days
# Method in brief: (§1)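 Viability was determined by CellTiter-Glo luminescence, expressed as surviving fraction normalised to the median of DMSO-only wells. The cells were log-phase tumour cell lines seeded at 250–500 per well in 384-well plates and, after 24 hours, exposed continuously for five days to inhibitors at 0.5, 1, 5, 10, 50, 100, 500 and 1000 nM. Three screens per line were run, keeping only lines with replicate Pearson r >0.7 and median Z' >0.3.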
# [1] = compound: COc1ccc(-c2cc3c(C)nc(N)nc3n([C@H]3CC[C@H](OCCO)CC3)c2=O)cn1; experiment: as above; conditions: exposure time: 5 days
# Method in brief: as §1
Test System,surviving fraction (BMN-673; 0.5 nM),surviving fraction (BMN-673; 1 nM),surviving fraction (BMN-673; 5 nM),surviving fraction (BMN-673; 10 nM),surviving fraction (BMN-673; 50 nM),surviving fraction (BMN-673; 100 nM),surviving fraction (BMN-673; 500 nM),surviving fraction (BMN-673; 1000 nM),surviving fraction ([1]; 0.5 nM),surviving fraction ([1]; 1 nM),surviving fraction ([1]; 5 nM),surviving fraction ([1]; 10 nM),surviving fraction ([1]; 50 nM),surviving fraction ([1]; 100 nM),surviving fraction ([1]; 500 nM),surviving fraction ([1]; 1000 nM)
SCC003 HEADNECK,1.06 ± 0.053,1.07 ± 0.035,1.04 ± 0.015,1.03 ± 0.044,0.913 ± 0.019,0.713 ± 0.059,0.588 ± 0.012,0.475 ± 0.066,1.03 ± 0.13,1.04 ± 0.057,1.02 ± 0.18,1.02 ± 0.036,0.879 ± 0.098,0.878 ± 0.13,0.23 ± 0.034,0.206 ± 0.049
SCC36 HEADNECK,1.13 ± 0.041,0.988 ± 0.087,0.95 ± 0.15,0.886 ± 0.025,0.77 ± 0.089,0.586 ± 0.0076,0.436 ± 0.056,0.352 ± 0.07,1.11 ± 0.012,0.988 ± 0.031,0.914 ± 0.016,1.11 ± 0.056,0.807 ± 0.017,0.84 ± 0.086,0.167 ± 0.024,0.143 ± 0.024
SCC47 HEADNECK,1.1 ± 0.089,1.13 ± 0.13,1.13 ± 0.015,1.12 ± 0.058,1.12 ± 0.039,1.03 ± 0.062,0.937 ± 0.1,0.784 ± 0.1,0.983 ± 0.021,0.992 ± 0.084,0.992 ± 0.027,1.01 ± 0.015,0.903 ± 0.032,0.886 ± 0.019,0.371 ± 0.013,0.225 ± 0.0095
SCC90 HEADNECK,1.05 ± 0.046,1.02 ± 0.031,1.01 ± 0.067,1.02 ± 0.059,0.813 ± 0.04,0.8 ± 0.13,1.17 ± 0.15,1.15 ± 0.033,0.913 ± 0.076,0.916 ± 0.037,0.892 ± 0.034,0.904 ± 0.15,0.674 ± 0.074,0.555 ± 0.077,0.194 ± 0.025,0.222 ± 0.054
SG27 HEADNECK,1.15 ± 0.04,1.08 ± 0.11,1.06 ± 0.046,0.978 ± 0.12,1.02 ± 0.17,0.927 ± 0.12,0.917 ± 0.038,0.877 ± 0.16,1.03 ± 0.11,1.02 ± 0.12,0.945 ± 0.042,0.935 ± 0.11,0.834 ± 0.21,0.703 ± 0.048,0.424 ± 0.0087,0.357 ± 0.039
SG28 HEADNECK,1.09 ± 0.14,1.064 ± 0.0085,1.12 ± 0.13,1.06 ± 0.012,1.01 ± 0.12,0.996 ± 0.065,1.01 ± 0.15,1.01 ± 0.074,1.042 ± 0.0068,1.033 ± 0.0092,0.998 ± 0.1,0.899 ± 0.058,0.691 ± 0.036,0.621 ± 0.057,0.3 ± 0.0047,0.242 ± 0.005
SG31 HEADNECK,1.18 ± 0.14,1.12 ± 0.028,1.08 ± 0.24,0.911 ± 0.15,0.969 ± 0.046,0.787 ± 0.09,0.916 ± 0.064,0.751 ± 0.046,0.99 ± 0.13,0.942 ± 0.1,0.933 ± 0.08,0.766 ± 0.057,0.637 ± 0.036,0.463 ± 0.054,0.25 ± 0.014,0.162 ± 0.023
SG32 HEADNECK,1.13 ± 0.067,0.975 ± 0.17,1.08 ± 0.29,0.985 ± 0.094,0.872 ± 0.12,1.22 ± 0.82,0.622 ± 0.0068,0.49 ± 0.044,1.08 ± 0.076,1.09 ± 0.38,1.02 ± 0.11,1.34 ± 0.31,1.04 ± 0.095,0.982 ± 0.14,0.432 ± 0.086,0.263 ± 0.044
